Assay results reported in patent publication US20130202698A1 (NANJING SANHOME PHARMACEUTICAL CO., LTD., priority 2005, published 2013).
Like-named read-outs stand apart in the source and are kept apart here. Marks after values point to notes of the source that are not given here.

How the values were obtained:
[1] = tested on: Strychnine-induced convulsion; test: Anticonvulsant effects on Strychnine-induced convulsion in mice; type: in vivo; settings: n=10; for Convulsion Latency: Mean ± SD
Procedure: (§1) Mice are randomized into 4 treatment groups (n=10 with half male and half female): dextro- or levo-ornidazole (dosage 40, 80, 160 mg/kg), vehicle control group (15% propylene glycol in 0.9% sodium chloride, 20 mL/kg) and the positive control group. Animals are treated with known convulsion-inducing agents, followed by the drug or vehicle control given intravenously. The dose volume is 20 mL/kg with an infusion rate of 0.2 mL/10 seconds. The anticonvulsant effects are observed and recorded (see Tables 2-6).

[2] = tested on: isoniazid-induced convulsion; test: Anticonvulsant effects on isoniazid-induced convulsion in mice; type: in vivo; settings: Mean ± SD, n=10
Procedure: as §1

glutamate = test: Effects on excitatory neurotransmitter glutamate levels in mice brain; type: in vivo
From the text: In another experiment, the effects on excitatory neurotransmitter levels by levo- and dextro-ornidazole were compared.

[3] = Phase II clinical trial, intravenous, adverse events; type: in vivo, human; settings: human, in vivo, iv
Procedure: A double-blinded randomized controlled trial was carried out to compare the adverse events between the I.V. levo-ornidazole and racemate treatment groups. […] The high rate of adverse events observed from the treatment by the racemic drug caused patient treatment non-compliant, which could be dangerous for life-threatening infections.

[4] = Phase II clinical trial, oral tablets, departments of obstetrics/gynecology, adverse events; type: in vivo, human; settings: human, in vivo, po
Procedure: Double-blinded randomized controlled trials were carried out to compare the adverse events of oral levo-ornidazole with racemate treatment groups. Two separate studies were conducted for patients with infections from either department of stomatology or obstetrics/gynecology.

[5] = tested on: spontaneous activities of mice; settings: both, mouse, in vivo, iv
Procedure: Mice weighing 18-22 g, half male and half female, were placed in the laboratory 24 hours before the test to adapt to the environment. The room temperature was controlled at 24±2° C. Animals were fasted for 8 hours before testing, and then placed in a transparent cage. The number of spontaneous activities of mice was counted by an automatic device (model XZ-4 by Drug Research Institute of China Academy of Medical Sciences). Mice were pre-screened by counting their spontaneous activities for five minutes and unqualified mice were excluded. A total of 110 mice were selected and divided into 11 groups with 10 mice in each group.
Chlorpromazine (3 mg/kg) was used as the positive control. The dose volume was 0.2 mL/10 gram and infusion rate was 0.2 mL/10 seconds.

[6] = tested on: motor balance and coordination; settings: both, mouse, in vivo
Procedure: Motor balance and coordination were tested using a modified beam walking method. Mice were put on a smooth beam tilted at an angle of 70 degree. Mice passed the test by standing on the beam for 0.5 minute without falling off. All the mice were pre-screened before the studies, and a total of 110 mice were selected by passing the beam test in 3 consecutive tries. The selected mice were divided into 11 groups with 10 mice in each group (half male and half female). At certain time points after drug administration, mice were tested on the beam for 3 consecutive times. A mouse was counted as failing to the test if it fell off the beam for 2 or more times.
The dose volume was 0.2 mL/10 gram and infusion rate was 0.2 mL/10 seconds. Chlorpromazine was used as the positive control.

Purkinje cells = settings: dog, in vivo, 200 mg/kg
Procedure: Male and female Beagle dogs were kept in laboratory conditions for 1 week to observe general health conditions. […] Animals were treated at dose of I.V. 200 mg/kg for ornidazole enantiomers, or 10 mL/kg for vehicle control for 2 weeks, then sacrificed for anatomical and pathological examinations.
Quantitative data were analyzed by group test and qualitative data by simplified direct probability method. A 10×10 area under low magnification was used to count cerebellar Purkinje cells.

[7] = rat, in vivo

SMILES: Cc1ncc([N+](=O)[O-])n1C[C@H](O)CCl [L-ornidazole, S-(−)-ornidazole]
- Convulsion Latency ([1]; 40 mg/kg i.v.): 5.3 ± 2.3 min
- Mortality Rate ([1]; 40 mg/kg i.v.): 10/10
- Convulsion Latency ([1]; 80 mg/kg i.v.): 7.5 ± 3.3 min
- Mortality Rate ([1]; 80 mg/kg i.v.): 10/10
- Convulsion Latency ([1]; 160 mg/kg i.v.): 8.6 ± 2.3 min
- Mortality Rate ([1]; 160 mg/kg i.v.): 6/10^#
- Convulsion Latency ([2]; 40 mg/kg i.v.): 37.1 ± 5.8 min
- Time to Death ([2]; 40 mg/kg i.v.): 47.6 ± 5.6 min
- Convulsion Latency ([2]; 80 mg/kg i.v.): 38.3 ± 6.3 min
- Time to Death ([2]; 80 mg/kg i.v.): 48.3 ± 9.6 min
- Convulsion Latency ([2]; 160 mg/kg i.v.): 45.0 ± 7.8 min
- Time to Death ([2]; 160 mg/kg i.v.): 75.2 ± 19.0 min
- Effect on glutamate levels in cerebrum and cerebellum (glutamate; FIG. 4, listed as Levo-ornidazole): little effect
- Effect on glutamate levels in cerebrum and cerebellum (glutamate; FIG. 4, listed as levo-ornidazole): little effects
- Adverse events reported (total) [3]: 3
- Appetite drop, # of Patients with AE [3]: 1
- Appetite drop, Incidence (%) [3]: 0.74%
- Dizziness, # of Patients with AE [3]: 0
- Dizziness, Incidence (%) [3]: 0.00%
- Dry mouth, # of Patients with AE [3]: 0
- Dry mouth, Incidence (%) [3]: 0.00%
- Headache, # of Patients with AE [3]: 0
- Headache, Incidence (%) [3]: 0.00%
- Hypersomnia, # of Patients with AE [3]: 0
- Hypersomnia, Incidence (%) [3]: 0.00%
- Hypodynamia, # of Patients with AE [3]: 0
- Hypodynamia, Incidence (%) [3]: 0.00%
- Nausea, # of Patients with AE [3]: 0
- Nausea, Incidence (%) [3]: 0.00%
- Patients with adverse events (total) [3]: 2 patients
- Stomach discomfort, # of Patients with AE [3]: 0
- Stomach discomfort, Incidence (%) [3]: 0.00%
- Total incidence rate of adverse events [3]: 1.47%
- Vertigo, # of Patients with AE [3]: 0
- Vertigo, Incidence (%) [3]: 0.00%
- Vomiting, # of Patients with AE [3]: 0
- Vomiting, Incidence (%) [3]: 0.00%
- WBC decline, # of Patients with AE [3]: 2
- WBC decline, Incidence (%) [3]: 1.47%
- Abdominal pain, # of Patients with AE [4]: 0
- Abdominal pain, Incidence (%) [4]: 0.00%
- Appetite drop, # of Patients with AE [4]: 0
- Appetite drop, Incidence (%) [4]: 0.00%
- Bitter taste, # of Patients with AE [4]: 0
- Bitter taste, Incidence (%) [4]: 0.00%
- Bloating, # of Patients with AE [4]: 0
- Bloating, Incidence (%) [4]: 0.00%
- Blurred vision, # of Patients with AE [4]: 0
- Blurred vision, Incidence (%) [4]: 0.00%
- Breast tenderness, # of Patients with AE [4]: 0
- Breast tenderness, Incidence (%) [4]: 0.00%
- Chest tightness, # of Patients with AE [4]: 0
- Chest tightness, Incidence (%) [4]: 0.00%
- Dazzle, # of Patients with AE [4]: 0
- Dazzle, Incidence (%) [4]: 0.00%
- Diarrhea, # of Patients with AE [4]: 0
- Diarrhea, Incidence (%) [4]: 0.00%
- Dizziness, # of Patients with AE [4]: 0
- Dizziness, Incidence (%) [4]: 0.00%
- Dry mouth, # of Patients with AE [4]: 0
- Dry mouth, Incidence (%) [4]: 0.00%
- Headache, # of Patients with AE [4]: 0
- Headache, Incidence (%) [4]: 0.00%
- Hypersomnia, # of Patients with AE [4]: 0
- Hypersomnia, Incidence (%) [4]: 0.00^## %
- Hypodynamia, # of Patients with AE [4]: 0
- Hypodynamia, Incidence (%) [4]: 0.00%
- Nausea, # of Patients with AE [4]: 1
- Nausea, Incidence (%) [4]: 0.70^# %
- Oral malodor, # of Patients with AE [4]: 1
- Oral malodor, Incidence (%) [4]: 0.70%
- Patients with adverse events (total) [4]: 5 patients
- Rash, # of Patients with AE [4]: 1
- Rash, Incidence (%) [4]: 0.70%
- Stomach ache, # of Patients with AE [4]: 1
- Stomach ache, Incidence (%) [4]: 0.70%
- Stomach discomfort, # of Patients with AE [4]: 1
- Stomach discomfort, Incidence (%) [4]: 0.70%
- Total incidence rate of adverse events [4]: 3.50%
- Vertigo, # of Patients with AE [4]: 0
- Vertigo, Incidence (%) [4]: 0.00^## %
- Vomiting, # of Patients with AE [4]: 0
- Vomiting, Incidence (%) [4]: 0.00%
- Spontaneous Activities (per 5 min) ([5]; 40 mg/kg, 0.5 h): 89 ± 48 per 5 min
- Spontaneous Activities (per 5 min) ([5]; 40 mg/kg, 1 h): 75 ± 40 per 5 min
- Spontaneous Activities (per 5 min) ([5]; 40 mg/kg, 2 h): 69 ± 29 per 5 min
- Spontaneous Activities (per 5 min) ([5]; 40 mg/kg, 3 h): 63 ± 16 per 5 min
- Spontaneous Activities (per 5 min) ([5]; 40 mg/kg, 4 h): 87 ± 43 per 5 min
- Spontaneous Activities (per 5 min) ([5]; 80 mg/kg, 0.5 h): 59 ± 27 per 5 min
- Spontaneous Activities (per 5 min) ([5]; 80 mg/kg, 1 h): 47 ± 30 per 5 min
- Spontaneous Activities (per 5 min) ([5]; 80 mg/kg, 2 h): 44 ± 25 per 5 min
- Spontaneous Activities (per 5 min) ([5]; 80 mg/kg, 3 h): 58 ± 36 per 5 min
- Spontaneous Activities (per 5 min) ([5]; 80 mg/kg, 4 h): 64 ± 36 per 5 min
- Spontaneous Activities (per 5 min) ([5]; 160 mg/kg, 0.5 h): 40 ± 31 per 5 min
- Spontaneous Activities (per 5 min) ([5]; 160 mg/kg, 1 h): 45 ± 25 per 5 min
- Spontaneous Activities (per 5 min) ([5]; 160 mg/kg, 2 h): 38 ± 18 per 5 min
- Spontaneous Activities (per 5 min) ([5]; 160 mg/kg, 3 h): 53 ± 23 per 5 min
- Spontaneous Activities (per 5 min) ([5]; 160 mg/kg, 4 h): 58 ± 26 per 5 min
- Number of Animals Fall Off ([6]; 40 mg/kg, 0.5 h): 0
- Number of Animals Fall Off ([6]; 40 mg/kg, 1 h): 1
- Number of Animals Fall Off ([6]; 40 mg/kg, 2 h): 0
- Number of Animals Fall Off ([6]; 40 mg/kg, 3 h): 0
- Number of Animals Fall Off ([6]; 40 mg/kg, 4 h): 0
- Number of Animals Fall Off ([6]; 80 mg/kg, 0.5 h): 0
- Number of Animals Fall Off ([6]; 80 mg/kg, 1 h): 0
- Number of Animals Fall Off ([6]; 80 mg/kg, 2 h): 0
- Number of Animals Fall Off ([6]; 80 mg/kg, 3 h): 1
- Number of Animals Fall Off ([6]; 80 mg/kg, 4 h): 1
- Number of Animals Fall Off ([6]; 160 mg/kg, 0.5 h): 0
- Number of Animals Fall Off ([6]; 160 mg/kg, 1 h): 0
- Number of Animals Fall Off ([6]; 160 mg/kg, 2 h): 3
- Number of Animals Fall Off ([6]; 160 mg/kg, 3 h): 2
- Number of Animals Fall Off ([6]; 160 mg/kg, 4 h): 1
- Purkinje cell morphology (Purkinje cells): did not cause significant change
- Distribution in different region of brain, levo- vs dextro-ornidazole [7]: Similar
